The values that follow are results of earlier work, collected in US8835453B2, “Sustained release implant for granisetron” (Development Center for Biotechnology, priority 2008, dated 2014).

Structures are written as SMILES. Where a name gives a salt, the structure may show the parent alone.

For this data set the following is noted: water and normal saline at 20° C.

As for `CN1C2CCCC1CC(NC(=O)c1nn(C)c3ccccc13)C2` (stereo not drawn) [Granisetron hydrochloride, endo-N-(9-methyl-9-azabicyclo[3.3.1]non-3-yl)-1-methyl-1H-indazole-3-carboxamide], the solubility result is recorded as “soluble”.
